The record followed here is patent US10927221B2, “Dendrimeric metallacrowns” (THE REGENTS OF THE UNIVERSITY OF MICHIGAN, priority 2018, dated 2021).

In series [1] the test system is HeLa cells. As to the kind of experiment: Epifluorescence imaging with HeLa cells. Type of series: cell-based. To be noted: 3 hours, λex 377 nm band pass 50 nm. Here is the method:
FIG. 21 depicts epifluorescence microscopy images (reproduced in black and white) obtained on HeLa cells, (Top) after incubation with a 30 μM solution of Ga8Tb2(shi)8(MIP)4 G:−0.5 polyamidoamine MC-cored dendrimer for 3 hours (λex: 377 nm, band pass 50 nm; λem: 536 nm, band pass 40 nm, 1 s of exposure) and (Bottom) untreated (control) cells. A: brightfield, B: visible emission, and C: merged image (Objective 63×);
FIG. 22 depicts epifluorescence microscopy images (reproduced in black and white) obtained on HeLa cells, (Top) after incubation with a 100 μM solution of the Ga8Yb2(shi)8(MIP)4 G:−0.5 polyamidoamine MC-cored dendrimer for 3 hours (λex: 377 nm, band pass 50 nm; λem: long pass 805 nm, 40 s of exposure), and (Bottom) untreated (control) cells. A: brightfield, B: visible emission, and C: merged image (Objective 63×);
To test if synthesized MC-cored dendrimers could be used under biological conditions and maintain the luminescence signal, HeLa cells were incubated with the Tb(III) and Yb(III) G:−0.5 polyamidoamine MC-cored dendrimers (Ga8Tb2 G:−0.5 polyamidoamine MC-cored dendrimers and Ga8Yb2 G:−0.5 polyamidoamine MC-cored dendrimers). The metallacrown complexes coated the surfaces of the cells. For a control, HeLa cells were not incubated and were imaged in a similar manner. […]

Series [2] can be described thus: Absolute quantum yields. Type of series: physicochemical. The note with it: aqueous solution.
Series [3] is described as follows: Absolute quantum yields. The format is physicochemical. An excerpt: (§1) Quantitative parameters, i.e. absolute quantum yields under excitation at 320 nm to 340 nm and luminescence lifetimes, have been determined for the Ga8Yb2(Shi)8(MIP)4 metallacrown and Ga8Ln2 G:−0.5 polyamidoamine MC-cored dendrimers (Ln=Yb, Tb, Sm) (Table 1).
(§2) In Table 1, luminescence lifetimes (λex=355 nm) and quantum yields (λex=340 nm for samples in the solid state and λex=320 for solutions) of the Ga8Yb2(Shi)8(MIP)4 dimeric metallacrown, Ga8Ln2 G:−0.5 polyamidoamine MC-cored dendrimers (Ln=Yb, Tb, Sm) (i.e., Ga8Ln2(Shi)8(MIP)4(G:−0.5 PAMAM)4) and Ga8Yb2 G:0.5 polyamidoamine MC-cored dendrimers at room temperature (2σ values are given between parentheses) are presented. For bi-exponetial luminescence lifetimes results, values after the colon indicate the fraction contribution of the individual lifetimes to the experimental luminescence decay.
(§3) Quantitative parameters, i.e. absolute quantum yields under excitation at 350 nm (for samples in the solid state) or 325 nm (for samples in solution) and luminescence lifetimes (under excitation at 355 nm), have been determined for each of the Ga8Y2(shi)8(mip)4 G:0 polyamidoamine MC-cored dendrimer, the Ga8Y2(shi)8(mip)4 G:0 AA-capped polyamidoamine MC-cored dendrimer, and the Ga8Y2(shi)8(mip)4 G:0.5 polyamidoamine MC-cored dendrimer at room temperature. In Table 2, the 2σ values are given between parentheses. For bi-exponetial luminescence lifetimes results, values after the colon indicate the fraction contribution of the individual lifetimes to the experimental luminescence decay.

Series [4] is described as follows: Luminescence lifetimes. Type of series: physicochemical.
Text: as §1, §2, §3

Series [5] in a line: Solution state (UV-Vis) absorbance. Type of series: physicochemical. The note with it: approximately 2 μM to 3 μM methanol solutions; room temperature. As to the method: The solution state (UV-Vis) absorbance of the Sm-shi8 and the Sm-e8, Sm-m4, Smbt8 and Sm-te4 analogs was measured in approximately 2 μM to 3 μM methanol solutions at room temperature. The absorbance spectrum for each analog shown in FIG. 29 has a π-π* transition band with λmax of approximately 315 nm (31,750 cm^−1) or 335 nm (29,850 cm^−1). This π-π* transition was red-shifted by close to 25 nm from Sm-shi8 in the case of Sm-e8 and Sm-bt8.

Setting [6] is: 200 μM H2O/DMSO (4%), λex=320 nm, room temperature (Table 1).
Where [7] appears, read: Solid, λex=340 nm, room temperature (Table 1).
[8] abbreviates: 200 μM H2O/DMSO (4%), λex=355 nm, room temperature (Table 1).
The mark [9] stands for this setting: Solid, λex=355 nm, room temperature, 2σ in parentheses (Table 1).
Setting [10] is: H2O/DMSO (96/4), 1 mg/mL, excitation at 325 nm, room temperature (Table 2).
[11] abbreviates: Solid, excitation at 350 nm, room temperature (Table 2).
The mark [12] stands for this setting: H2O/DMSO (96/4), 1 mg/mL, excitation at 355 nm, room temperature (Table 2).
Setting [13] is: Solid, excitation at 355 nm, room temperature (Table 2).
The mark [14] stands for this setting: 200 μM H2O/DMSO (4%), λex=355 nm, room temperature (Table 1), longer lifetime component.
[15] abbreviates: 200 μM H2O/DMSO (4%), λex=355 nm, room temperature (Table 1), shorter lifetime component.

Bounds are passed on as bounds.

Turning to “Ga8Yb2(shi)8(MIP)4 G:−0.5 polyamidoamine MC-cored dendrimer [Ga8Yb2 Gen: −0.5]”, in series [1] (100 μM, >805 nm emission, 40 s exposure), the “luminescence signal on epifluorescence microscope, NIR range” value is “good quality signals were observed in the NIR range”. Further, the “improvement of quantum yield compared to YnZn16 MCs assembled with pyrazinehydroxamic acid” value in series [2] is over 77 times. Besides, the Quantum yield is recorded as 0.868(9) % in series [3] (setting [6]); 0.868% in series [3] (200 μM H2O/DMSO (4%), λex=320 nm, room temperature (Table 1), listed as Ga8Yb2 G:−0.5 polyamidoamine MC-cored dendrimer); 3.24(9) % in series [3] (setting [7]). Moreover, the Lifetime in series [4] (setting [8]) was 13.(1) μs; in series [4] (setting [9]) it was 35.3(6) μs.

Consider “Ga8Yb2(shi)8(MIP)4 G:0 polyamidoamine MC-cored dendrimer [Ga8Yb2 G:0]”, for which the Quantum yield is listed as 0.53(1) % in series [3] (setting [10]) and 2.40(2) % in series [3] (setting [11]). Further, the results for the Lifetime in series [4] (setting [12]) and in series [4] (setting [13]) were 9.93(8) μs and 36.3(1) μs, respectively.

On to Ga8Yb2(Shi)8(MIP)4, for which the Quantum yield in series [3] (setting [6]) is 9.01(7) · 10^−2%; in series [3] (setting [7]), 0.126(3) %. Further, the “fraction contribution of the individual lifetime to the experimental luminescence decay” value in series [4] (setting [14]) is recorded as 97.5(3) %; in series [4] (setting [15]), 2.5(3) %.

Turning to Sm2Ga8(eshi)8(ip)4 [Sm-e8], the “red-shift of π-π* transition band from Sm-shi8” value in series [5] is reported as about 25 nm.

With Sm2Ga8(shi)8(miph)4 [Sm-m4], the “red-shift of π-π* transition band from Sm-shi8” value in series [5] is recorded as “no notable redshift”.

As for “Ga8Sm2(shi)8(MIP)4G:−0.5 PAMAM metallacrown (MC)-cored dendrimer [Ga8Sm2 Gen: −0.5]”, the Quantum yield in series [3] (setting [6]) is 1.1(1) %; in series [3] (setting [7]) it was 2.31(2) %. The figures for the Lifetime in series [4] (setting [8]) and in series [4] (setting [9]) were 96.2(9) μs and 112(1) μs, respectively.

For “Ga8Tb2(shi)8(MIP)4 G:−0.5 polyamidoamine MC-cored dendrimer [Ga8Tb2 Gen: −0.5]”, in series [1] (30 μM, 536 nm emission, 40 nm filter, 1 s exposure), the “luminescence signal on epifluorescence microscope, visible range” value is “good quality signals were observed in the visible range”. In addition, the Quantum yield in series [3] (setting [6]) was 6.1(3) %; in series [3] (setting [7]), 11.9(3) %. Moreover, the entries for the “fraction contribution of the individual lifetime to the experimental luminescence decay” value in series [4] (setting [14]) and in series [4] (setting [15]) were 89.7(8) % and 10.3(8) %, respectively.

For “Ga8Yb2(shi)8(MIP)4 G:0.5 polyamidoamine MC-cored dendrimer [Ga8Yb2 Gen: 0.5]”, the Quantum yield is 0.63(1) % in series [3] (setting [10]), 2.83(9) % in series [3] (setting [11]) and 1.82(1) % in series [3] (setting [7]). In addition, the Lifetime is listed as 11.1(1) μs in series [4] (setting [12]), 46.3(1) μs in series [4] (setting [13]) and 28.2(3) μs in series [4] (setting [9]).
